# Test results taken from US8338410B2, “Neuroprotective compounds and pharmaceutical compositions comprising them” (Biocodex, priority 2005, dated 2012).
# Legend:
# [1] = system: cortical neurones in the presence of astrocytes in culture; test: Prior cytotoxicity, microscopic observation after 48 hours; format: cell-based; details: 100 μM, 48 hours incubation
# Procedure: (§1) • Cell type: Initial culture of cortical neurones from 14 day rat embryos and initial culture of cortical astrocytes from newborn rats. • Culture medium: DMEM-Ham F12 (Invitrogen 21331020) • B27 2% (invitrogen 17504044) • L-glutamine 2 mM (Invitrogen 25030024) • Penicillin 50 UI/ml—Streptomycin 50 μg/ml (Invitrogen 15070063) • Nerve Growth Factor 10 ng/ml (NGF, Invitrogen 13290.010) • Survival medium: MEM (Invitrogen 21090022) • L-glutamine 2 mM (Invitrogen 25030024) • Penicillin 50 UI/ml—Streptomycin 50 μg/ml (Invitrogen 15070063) • Supplement N2 (Invitrogen 17502-048) 1.2 Prior Cytotoxicity • Platelets: 96 wells • Culture time: 8 days • Cells/well: cortical neurones+astrocytes • Product range: from 100 μM then ratio 3 • Replicates: 3 • Cell/product contact: 48 hours • Evaluation parameters: microscopic observation and MTT hydrolysis. • MTT: 3-(4,5-dimethylthiozol-2-yl)-2,5-diphenyltetrazolium bromide 1.3 Treatment and Analysis of the Network of Extensions Marked with Antineurofilament Antibody
# A first experiment was carried out (conventional test used to measure the level of cell survival) in order to investigate the cytotoxicity of etifoxine in relation to cortical neurones in the presence of astrocytes in culture and thus to determine the maximum non-toxic concentration of etifoxine.
# [2] = system: mixed cultures of rat cortical neurones and astrocytes; test: Density of neuritic extensions marked by anti-neurofilament antibody, with or without excess glutamate; format: cell-based; details: for density of neurofilaments: control culture medium
# Description: The principle of the investigation consisted of evaluating the survival of cortical neurones in co-culture with astrocytes after the application of a neurotoxic agent, excess glutamate.
# Neurone survival is quantified by the density of the system of neuritic extensions marked by an anti-neurofilament antibody in the absence or presence of glutamate.
# as §1
# The cortical neurones were obtained from the cortex of 14 day rat embryos cultured in platelet culture medium 96 and then in a stove at 37° C. and 5% CO2 with saturated humidity. After 2 days culture astrocytes obtained from newborn rat cortex were seeded in the wells (in a ratio of 1 astrocyte to 4 neurones). After 10 days culture the mature neurones synthesised neurofilaments (structural protein specific to mature neurones); in addition to this these neurones expressed functional receptors to glutamate on their surfaces and could therefore be intoxicated.
# On the 12th day of culture the medium was replaced by survival medium with or without etifoxine in 3 concentrations and the neurones were or were not intoxicated with glutamate (Sigma G1501) at a strength of 2 mM and 10 mM. Each culture condition was applied to 4 wells. The cultures were incubated for 2 periods (6 and 24 hours).
# A positive control was carried out in the survival culture medium containing Nerve Growth Factor (NGF; 10 ng/ml) and basic Fibroblast Growth Factor (FGFb; 5 ng/ml) and the cells were intoxicated under the same conditions.
# At the end of the two incubation periods (6 and 24 hours) the cell layers were fixed and marked with a anti-68- and 200 kD neurofilament monoclonal antibody (DAKO M0762) and then developed using a mouse anti-immunoglobulin goat antibody conjugate Alexia fluor 488 (Interchim A-11029). Controls without primary antibody were performed. All the controls were negative (no non-specific labelling). After extensive washing with PBS the preparations were observed under epi-fluorescence (Nikon Diaphot 300 microscope).
# 2 images were obtained for each culture well (4 wells per experimental condition) using a Nikon DXM1200F camera controlled by LUCIA 6.0 software.
# All the images were obtained under the same conditions and with identical camera settings.
# The densities of the networks of extensions marked with anti-neurofilament antibody were examined using LUCIA 6.0 software. Initial image processing made it possible to increase the intensity of the specific marking on the extensions. Areas in which marking was positive were binarised and the percentage marking per image was determined (marked surface area/total surface area examined).
# The results (mean values±standard error with respect to the mean (SEM) were expressed as percentage marking per microscope field (n=8 measurements/culture conditions). 2-factor analysis of variance (Etifoxine and glutamate), followed by the Student Newman-Keuls multiple comparisons test was used for statistical comparison of the results. […]
# [3] = system: mice subjected to hypobaric hypoxia; test: Hypobaric hypoxia in mice (survival time); format: in vivo, NMRI male mice; details: mice; for Percentage variation / Survival time in seconds (m ± sem): hypobaric hypoxia 160 mmHg
# Procedure: 1.1 Hypobaric Hypoxia in Mice
# NMRI male mice from Janvier weighing between 25 and 30 grams were used after acclimatisation in the animal house for at least 7 days (t°=22±2° C.; humidity 50±20%; feed UAR “A04” SAFE (Augy, France) and tap water ad libitum; 12 hour night and day cycle (light from 7 a.m. to 7 p.m.).
# The unfasting […] were distributed at random into lots of 10.
# The protocol of Nakaniski et al. (1973) Life Sciences, 13, 467-474 was adapted for the purposes of the model.
# Each mouse was placed in a dessicator (hermetically sealed enclosure) in which atmospheric pressure was reduced from 760 to 160 mmHg using a water pump. This pressure reduction was carried out in one minute and caused death of the control animals in approximately 1 minute.
# The survival time of the animal, which corresponded to the difference between the time to death of the mouse assessed by respiratory arrest less the time required to induce the hypoxia was then noted.
# The products under investigation were administered intraperitoneally (i.p.) (0.1 ml/10 g), 30 minutes before inducing hypobaric hypoxia, or orally (0.1 ml/10 g p.o.) 1 hour before hypoxia.
# Etifoxine hydrochloride was dissolved in 1% Tween 80. The potassium cyanide (Merck) was dissolved in 0.9% NaCl.
# The statistical test used was a one-factor analysis of variance to determine the treated groups, which differed from the control group receiving the vehicle, at a threshold of 5%.
structure (smiles),measurement,setting,value
"CCNC1=Nc2ccc(Cl)cc2C(C)(c2ccccc2)O1.Cl (stereo not shown) [etifoxine, 6-chloro-2-ethylamino-4-methyl-4-phenyl-4H-[3,1]benzoxazine hydrochloride]","astrocyte mortality, visual examination with a microscope",[1],astrocyte mortality was observed
same,density of marked neurofilaments,"[2]; control culture medium (without glutamate), 6 hours, significant at 10 μM",increased the density of marked neurofilaments in a dose-dependent way
same,density of neurofilaments,"[2]; 24 hours, 10 μM",increased the density of neurofilaments
same,density of neurofilaments,"[2]; 24 hours, 1 and 3 μM",without effect
same,density of neurofilaments in the presence of glutamate,"[2]; glutamate 2 mM, 24 hours, compound 10 μM",opposed the effects of 2 mM of glutamate
same,density of neurofilaments in the presence of glutamate,"[2]; glutamate 2 and 10 mM, 6 hours, compound 3 and 10 μM",opposed the decrease in density of neurofilaments induced by glutamate
same,Percentage variation,[3]; i.p. 3 mg/kg,+12%
same,Survival time in seconds (m ± sem),[3]; i.p. 3 mg/kg,64.5 ± 3.4 s
same,Percentage variation,[3]; i.p. 10 mg/kg,+15%
same,Survival time in seconds (m ± sem),[3]; i.p. 10 mg/kg,66.1 ± 3.0 s
same,Percentage variation,[3]; i.p. 30 mg/kg,+42%
same,Survival time in seconds (m ± sem),[3]; i.p. 30 mg/kg,81.8 ± 4.6 s
same,Percentage variation,[3]; i.p. 50 mg/kg,+141%
same,Survival time in seconds (m ± sem),[3]; i.p. 50 mg/kg,138.5 ± 23.3 s
same,Percentage variation,[3]; i.p. 75 mg/kg,+130%
same,Survival time in seconds (m ± sem),[3]; i.p. 75 mg/kg,132.0 ± 21.6 s
same,Percentage variation,[3]; p.o. 30 mg/kg,+47%
same,Survival time in seconds (m ± sem),[3]; p.o. 30 mg/kg,81.5 ± 4.5 s
same,Percentage variation,[3]; p.o. 100 mg/kg,+72%
same,Survival time in seconds (m ± sem),[3]; p.o. 100 mg/kg,95.3 ± 5.6 s
same,Percentage variation,[3]; p.o. 200 mg/kg,+79%
same,Survival time in seconds (m ± sem),[3]; p.o. 200 mg/kg,99.5 ± 2.7 s
same,Percentage variation,[3]; p.o. 300 mg/kg,+108%
same,Survival time in seconds (m ± sem),[3]; p.o. 300 mg/kg,115.5 ± 8.6 s
same,time to death,"[3]; hypobaric hypoxia, over 30 mg/1 kg i.p. or p.o.",significantly increased the time to death
